According to patent US5112807A, “Compound "Leualacin", its preparation and its use in the treatment of cardiovascular disorders” (Sankyo Company, Limited, priority 1988, dated 1992):

What was measured:
[1] = system: SHR (spontaneously hypertensive rats); assay: Antihypertensive activity in SHR; format: in vivo; settings: conscious male SHR
Experimental: Male SHR (spontaneously hypertensive rats), 15 weeks old, were anesthetized with sodium pentobarbital (50 mg/kg intraperitoneally). and a polyethylene cannula was inserted through the left femoral artery into the abdominal aorta. The other end of the cannula was led out of the body and fixed at the back of the neck. One week after the operation, when the animal had recovered from the stress of the surgery, the other end of the cannula was connected to a blood pressure transducer, which was constructed according to the directions of Laffan et al. [Laffan, P. J., Peterson A., Hitch S. W. and Jeunelot C., Cardiovascular Res. 6, 319-324 (1972)], but with slight modifications. The blood pressure and heart rate of the conscious and unstressed SHR were measured. After the blood pressure and the heart rate had stabilised for more than one hour, the test drug was administered by gavage. After administration of the test sample, the blood pressure and the heart rate were measured every 15 minutes over a […] is shown in Table 2.

[2] = molecular target: T1, calcium channel (3H-nitrendipine binding to microsome fraction prepared from porcine heart) (Sus scrofa, UniProt A0A8W4FNC0); assay: Radioligand binding assay: inhibition of 3H-nitrendipine binding to microsomes; settings: 200 PM 3H-nitrendipine, 25° C., 30 minutes, pH 7.4, read-out: ID50, inhibition of binding of 3H-nitrendipine to microsomes (converted)
T1 construct: 15 to 20 μg of a microsome fraction prepared from porcine heart; from tissue; host or cells: porcine heart microsome fraction
T1 sequence (A0A8W4FNC0 1-2067): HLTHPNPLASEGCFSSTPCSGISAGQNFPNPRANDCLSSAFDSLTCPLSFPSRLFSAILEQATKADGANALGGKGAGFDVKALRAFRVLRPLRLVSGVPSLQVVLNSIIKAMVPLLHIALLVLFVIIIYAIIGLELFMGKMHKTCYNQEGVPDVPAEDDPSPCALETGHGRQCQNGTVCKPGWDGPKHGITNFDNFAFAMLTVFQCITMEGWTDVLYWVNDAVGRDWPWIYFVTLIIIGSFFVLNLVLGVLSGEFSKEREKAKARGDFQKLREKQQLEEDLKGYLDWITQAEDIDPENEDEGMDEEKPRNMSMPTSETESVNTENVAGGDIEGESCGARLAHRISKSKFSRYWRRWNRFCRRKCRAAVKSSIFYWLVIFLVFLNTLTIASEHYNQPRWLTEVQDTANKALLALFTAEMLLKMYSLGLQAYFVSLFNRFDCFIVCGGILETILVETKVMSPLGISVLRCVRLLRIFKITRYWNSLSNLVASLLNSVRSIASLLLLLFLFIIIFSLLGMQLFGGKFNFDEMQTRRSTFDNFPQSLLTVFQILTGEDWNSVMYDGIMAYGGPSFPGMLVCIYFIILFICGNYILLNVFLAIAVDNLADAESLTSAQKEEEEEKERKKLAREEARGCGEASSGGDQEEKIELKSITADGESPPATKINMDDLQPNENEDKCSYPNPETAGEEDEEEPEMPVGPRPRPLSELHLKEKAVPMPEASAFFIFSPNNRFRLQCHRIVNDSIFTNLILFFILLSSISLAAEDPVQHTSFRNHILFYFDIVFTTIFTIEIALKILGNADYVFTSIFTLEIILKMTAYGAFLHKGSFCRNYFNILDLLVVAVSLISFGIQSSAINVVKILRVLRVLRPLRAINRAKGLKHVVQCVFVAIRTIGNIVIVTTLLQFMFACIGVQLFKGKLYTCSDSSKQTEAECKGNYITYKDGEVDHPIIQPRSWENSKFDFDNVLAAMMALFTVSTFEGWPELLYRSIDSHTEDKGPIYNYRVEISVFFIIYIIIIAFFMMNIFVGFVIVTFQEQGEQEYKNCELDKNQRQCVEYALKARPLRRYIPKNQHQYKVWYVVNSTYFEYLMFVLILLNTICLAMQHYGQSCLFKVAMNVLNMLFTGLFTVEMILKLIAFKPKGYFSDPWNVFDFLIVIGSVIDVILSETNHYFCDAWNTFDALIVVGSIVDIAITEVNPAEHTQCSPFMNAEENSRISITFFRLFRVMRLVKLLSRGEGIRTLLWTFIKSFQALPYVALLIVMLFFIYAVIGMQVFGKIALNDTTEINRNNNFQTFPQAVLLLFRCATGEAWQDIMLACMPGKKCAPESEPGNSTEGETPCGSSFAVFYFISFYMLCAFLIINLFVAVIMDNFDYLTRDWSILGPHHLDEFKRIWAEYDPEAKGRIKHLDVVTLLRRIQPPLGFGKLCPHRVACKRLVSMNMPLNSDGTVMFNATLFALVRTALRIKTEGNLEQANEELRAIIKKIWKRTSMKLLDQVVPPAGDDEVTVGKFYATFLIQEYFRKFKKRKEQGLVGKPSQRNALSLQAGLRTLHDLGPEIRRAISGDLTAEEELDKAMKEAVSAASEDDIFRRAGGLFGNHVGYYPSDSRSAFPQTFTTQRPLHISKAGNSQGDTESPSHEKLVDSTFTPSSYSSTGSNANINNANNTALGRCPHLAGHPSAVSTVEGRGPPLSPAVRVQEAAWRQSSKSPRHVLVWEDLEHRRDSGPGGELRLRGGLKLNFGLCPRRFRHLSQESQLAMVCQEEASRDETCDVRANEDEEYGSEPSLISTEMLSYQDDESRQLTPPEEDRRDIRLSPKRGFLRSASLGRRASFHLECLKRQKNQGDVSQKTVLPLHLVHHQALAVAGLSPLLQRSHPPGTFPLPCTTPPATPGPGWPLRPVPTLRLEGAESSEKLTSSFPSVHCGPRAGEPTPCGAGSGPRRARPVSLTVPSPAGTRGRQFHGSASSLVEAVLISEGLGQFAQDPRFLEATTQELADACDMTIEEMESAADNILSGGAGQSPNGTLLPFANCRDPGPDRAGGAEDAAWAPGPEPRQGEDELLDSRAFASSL
Text: The progress of the cultivation and the amount of Leualacin produced as the culture proceeds can be determined by a radio ligand binding assay method, that is, for example, the method of […] and R. E. Oswald [Journal of Biological Chemistry, 260, 8456-8464 (1985)] which is based on the ability of Leualacin to inhibit the binding of ^3 H-nitrendipine to microsomes. High performance liquid chromatography may also be used. […] This experiment used a radioligand binding assay method, which is a modification of the method of […] and R. E. Oswald [Journal of Biological Chemistry, 260, 8456-8464 [(1985)], to determine the activity which inhibits the binding of ^3 H-nitrendipine to microsomes. The reaction was carried out at 25° C. for 30 minutes in 1 ml of a reaction mixture comprising 15 to 20 μg of a microsome fraction prepared from porcine heart, 200 PM ^3 H-nitrendipine (NEN-Dupont Pharmaceuticals, specific activity 88.1 Ci/mM), 50 mM NaOH-HEPES buffer (pH 7.4) and 0.5% by volume ethanol. (HEPES is N-2-hydroxyethylpiperazine-N'-2-ethanesulfonic acid). […] The glass-fibre filter was then put in a vial and OPTIFLUOR (Packard Co., Ltd.) was used as the scintillator and the radioactivity (as disintegrations per minute) was measured.

mice = assay: Acute toxicity; format: in vivo; settings: orally, 200 mg/kg
Experimental: No toxicity was noted when Leualacin was orally administered to mice at a dose of 200 mg/kg, which is far in excess of any reasonable therapeutic dose.

tenia caecum = assay: Calcium antagonizing action in the tenia caecum; format: cell-based, guinea pigs; settings: 30 minutes incubation, calcium chloride-induced contraction
Experimental: The calcium antagonizing activity in the tenia caecum was measured according to the method of M. Spedding [Naunyn-Schmiedeberg's Arch. Pharmacol. 318, 234-240(1982)]. Male guinea pigs weighing 250 to 300 g were laparotomized under pentobarbital anesthesia and the tenia was immediately removed from the caecum. The tenia was cut into strips of 6-7 cm length and suspended in a Magnus vessel filled with 20 ml of Tyrode's solution without calcium aerated with a mixed gas (O2 95%-CO2 5% by volume). After the specimen had eguilibrated by standing for 1 hour under the above conditions, 0.2 ml each of 30, 100 and 300 mM aqueous calcium chloride solutions were cumulatively added at 3 minute intervals and the contraction of the specimen was measured. After the measurements, the specimen was washed twice with Tyrode's solution without calcium and left for 30 minutes. The specimen was then incubated with Leualacin for 30 minutes, after which 0.2 ml each of 30, 100 and 300 mM calcium chloride solutions were cumulatively added at 3 minute intervals in the same manner as above, and the contraction was again measured. The contraction after the treatment with the Leualacin solution was deducted from that after the treatment with the calcium chloride solution alone and the value obtained was divided by the contraction after the treatment with the calcium chloride solution alone, to give the antagonizing rate.

[3] = Chemical and physical properties: description and solubility; format: physicochemical
Text: Leualacin has the molecular structure shown above and the following chemical and physical properties: […]

CC(C)CC1NC(=O)C(CC(C)C)OC(=O)CCNC(=O)C(Cc2ccccc2)N(C)C(=O)C(CC(C)C)OC1=O (centres unmarked) [Leualacin, 11-benzyl-2,5,8-triisobutyl-10-methyl-1,7-dioxa-4,10,13-triazacyclohexadec ane-3,6,9,12,16-pentone]
Decrease of blood pressure (mmHg) ([1]; 100 μg/kg by gavage): 44 mmHg
Decrease of blood pressure (mmHg) ([1]; 300 μg/kg by gavage): 57 mmHg
IC50 [2]: 1730 nM
Acute toxicity (mice): No toxicity
Antagonizing rate (%) (tenia caecum; Leualacin 10^-6 g/ml): 97%
Antagonizing rate (%) (tenia caecum; Leualacin 10^-7 g/ml): 73%
Antagonizing rate (%) (tenia caecum; Leualacin 10^-8 g/ml): 22%
Antagonizing rate (%) (tenia caecum; Leualacin 10^-9 g/ml): 0%
Description [3]: neutral, fat-soluble
Solubility in organic solvents ([3]; methanol, acetone, chloroform and ethyl acetate): Soluble
Solubility in water ([3]; water): insoluble
